Experimental data reported in patent publication EP4603105A1, “PHARMACEUTICAL COMPOSITION CONTAINING CYCLIC COMPOUND HAVING SELECTIVE KRAS INHIBITORY EFFECT AGAINST HRAS AND NRAS” (CHUGAI SEIYAKU KABUSHIKI KAISHA, priority 2022, dated 2024).
Like-named read-outs stand apart in the source and are kept apart here.

Columns and labels:
[1] = molecular target: GDP-bound KRAS wild-type protein (Homo sapiens, UniProt P01116); test: Binding to KRAS by surface plasmon resonance (SPR), dissociation constant KD
Method in brief: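 Running buffer contained 10 µM GDP and 10 mM MgCl2 to keep RAS in the GDP state, with 4% DMSO at pH 7.4. Compounds were flowed at 100 µL/min in 75 s steps of rising concentration over captured biotin-Avi RAS at 30°C. Sensorgrams were fitted 1:1 for KD.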

[2] = molecular target: GDP-bound NRAS wild-type protein (Homo sapiens, UniProt P01111); test: Binding to NRAS by surface plasmon resonance (SPR), KD and KD ratio to KRAS
Method in brief: (§1)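 Single-cycle kinetics on GDP-loaded biotin-Avi RAS captured to ~100–300 RU; 75 s ascending injections, 100 µL/min, 30°C. HBS pH 7.4 + 10 mM MgCl2/10 µM GDP/4% DMSO. 1:1 fit, KD.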

HRAS wild-type protein = HRAS wild-type protein (Homo sapiens, UniProt P01112); test: Binding to HRAS by surface plasmon resonance (SPR), KD and KD ratio to KRAS
Method in brief: as §1

[3] = system: human lung cancer strain NCI-H441; test: NCI-H441 cell proliferation inhibitory activity (CellTiter-Glo, 4 days); assay type: cell-based; conditions: read-out: NCl-H441 IC50
Method in brief: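 Proliferation was scored by […] measured after the reagent was added to cultures kept at 37°C in 5% carbon dioxide.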

[4] = ratio of KD for GDP-bound NRAS wild-type protein to KD for KRAS
[5] = ratio of KD for HRAS wild-type protein to KD for KRAS
[6] = Single Cycle Kinetics, 1:1 binding model
[7] = ratio of KD with respect to GDP-bound NRAS wild-type protein to KD with respect to KRAS
[8] = ratio of KD with respect to HRAS wild-type protein to KD with respect to KRAS
[9] = 50% proliferation inhibitory concentration, four days

HRAS wild-type protein, sequence (P01112 whole entry): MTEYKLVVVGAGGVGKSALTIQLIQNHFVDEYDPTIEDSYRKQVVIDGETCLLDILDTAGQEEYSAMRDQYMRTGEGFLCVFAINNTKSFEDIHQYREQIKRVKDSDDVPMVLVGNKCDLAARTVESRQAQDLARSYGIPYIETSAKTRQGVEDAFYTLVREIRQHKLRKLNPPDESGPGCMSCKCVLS
GDP-bound KRAS wild-type protein, sequence (P01116 1-188 isoform P01116-2): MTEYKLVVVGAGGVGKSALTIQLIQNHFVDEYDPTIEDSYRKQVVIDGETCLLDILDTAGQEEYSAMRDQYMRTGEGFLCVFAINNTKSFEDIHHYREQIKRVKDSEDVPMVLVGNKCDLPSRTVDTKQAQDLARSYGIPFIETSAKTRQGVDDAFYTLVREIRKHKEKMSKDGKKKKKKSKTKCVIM
GDP-bound NRAS wild-type protein, sequence (P01111 whole entry): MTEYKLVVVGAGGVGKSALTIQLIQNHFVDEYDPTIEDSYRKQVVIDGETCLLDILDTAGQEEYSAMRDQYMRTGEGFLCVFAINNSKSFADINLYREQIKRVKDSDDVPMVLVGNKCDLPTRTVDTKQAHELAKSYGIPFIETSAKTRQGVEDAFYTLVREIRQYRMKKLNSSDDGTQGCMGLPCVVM

Row | Kd ([1]; Single Cycle Kinetics) | IC50 ([3]; NCI-H441 cells, 4 days) | Kd ([1]; 1:1 binding model) | Kd [1, 6] | IC50 [3, 9] | SMILES | NRAS /KRAS [2, 4] | HRAS /KRAS (HRAS wild-type protein; [5]) | NRAS /KRAS [2, 7] | HRAS /KRAS (HRAS wild-type protein; [8])
1 | 0.31 nM | 10.1 nM | – | – | – | CCC[C@H]1C(=O)N[C@@H]([C@@H](C)CC)C(=O)N(C)CC(=O)N(C)[C@H]2C/C=C\CCN(C2=O)[C@@H](Cc2ccc(C(F)(F)F)cc2)C(=O)N(C)CC(=O)N[C@@H](CCc2cc(F)c(C(F)(F)F)c(F)c2)C(=O)N2CC3(CC3)C[C@H]2C(=O)NC2(CCC2)C(=O)N(C)[C@@H](C(CC)CC)C(=O)N(C)[C@H](C(=O)N(C)C)CC(=O)N1C [PP3402] | AA (a compound having 20 or more is denoted as AA) | B (a compound having 3 or more and less than 10 is denoted as B) | – | –
2 | – | 4.1 nM | 0.069 nM | – | – | CCO[C@@H]1C[C@H]2C(=O)NC3(CC(C)(C)C3)C(=O)N(C)[C@@H](C3CCCC3)C(=O)N(C)[C@H](C(=O)N(C)CC)CC(=O)N(C)[C@@H](COC)C(=O)N[C@@H]([C@@H](C)CC)C(=O)N(C)CC(=O)N(C)[C@H]3C/C=C\CCN(C3=O)[C@@H](Cc3ccc(C)cc3)C(=O)N(C)CC(=O)N[C@@H](CCc3cc(F)c(C(F)(F)F)c(F)c3)C(=O)N2C1 [PP2396] | A (a compound having 10 or more and less than 20 is denoted as A) | A (a compound having 10 or more and less than 20 is denoted as A) | – | –
3 | – | – | – | 0.3 nM | 82 nM | CC[C@H](C)[C@@H]1NC(=O)[C@H](CC2CC2)N(C)C(=O)C[C@@H](C(=O)N(C)C)N(C)C(=O)[C@H](C2CCCC2)N(C)C(=O)C2(CCC2)NC(=O)[C@H](CCC(F)F)N(C)C(=O)[C@H](CCc2cc(F)c(C(F)(F)F)c(F)c2)NC(=O)CN(C)C(=O)[C@H](Cc2ccc(C(F)(F)F)cc2)N2CC/C=C\C[C@@H](C2=O)N(C)C(=O)CN(C)C1=O [PP1402] | – | – | A (a compound having 10 or more and less than 20 is denoted as A) | A (a compound having 10 or more and less than 20 is denoted as A)
4 | – | – | – | 0.081 nM | 6.6 nM | CCO[C@@H]1C[C@H]2C(=O)NC3(CCC3)C(=O)N(C)[C@@H](C3CCCC3)C(=O)N(C)[C@H](C(=O)N3CCOCC3)CC(=O)N(C)[C@@H](CC)C(=O)N[C@@H]([C@@H](C)CC)C(=O)N(C)CC(=O)N(C)[C@H]3CC[C@@H](C)CN(C3=O)[C@@H](Cc3ccc(C(F)(F)F)cc3)C(=O)N(C)CC(=O)N[C@@H](CCc3ccc(C(F)(F)F)c(Cl)c3)C(=O)N2C1 [PP1378] | – | – | B (a compound having 3 or more and less than 10 is denoted as B) | C (A compound having a KD ratio of 0.1 or more and less than 3 is denoted as C)
5 | 5.4 nM | 57.2 nM | – | – | – | CCC(CC)[C@H]1C(=O)N(C)[C@H](C(=O)N(C)C)CC(=O)N(C)[C@@H](CC2CC2)C(=O)N[C@@H]([C@H](C)CC)C(=O)NCC(=O)N(C)[C@H]2C/C=C\CCN(C2=O)[C@@H](Cc2ccc(C(F)F)cc2)C(=O)N(C)CC(=O)N[C@@H](CCc2ccc(Cl)c(C(F)(F)F)c2)C(=O)N2C[C@H](OC(C)C)C[C@H]2C(=O)N(C)C2(CC(C)(C)C2)C(=O)N1C [PP3508] | A (a compound having 10 or more and less than 20 is denoted as A) | A (a compound having 10 or more and less than 20 is denoted as A) | – | –
6 | 0.16 nM | 8.2 nM | – | – | – | CCO[C@@H]1C[C@H]2C(=O)OC3(CCC3)C(=O)N(C)[C@@H](C3CCCC3)C(=O)N(C)[C@H](C(=O)N(C)C)CC(=O)N(C)[C@@H](CC(C)C)C(=O)N[C@@H]([C@@H](C)CC)C(=O)N(C)CC(=O)N(C)[C@H]3C/C=C\CCN(C3=O)[C@@H](Cc3ccc(C(F)(F)F)cc3)C(=O)N(C)CC(=O)N[C@@H](CCc3ccc(C(F)(F)F)c(OC)c3)C(=O)N2C1 [PP3364] | A (a compound having 10 or more and less than 20 is denoted as A) | A (a compound having 10 or more and less than 20 is denoted as A) | – | –
